The results in this text go back to US20250257051A1, “SUBSTITUTED PYRIMIDINE COMPOUNDS AS TYK2 INHIBITORS” (1910 Genetics Inc., priority 2022, published 2025).

Where a name gives a salt, the structure may show the parent alone.

For this test, the target named is human TYK2 (JH2domain-pseudokinase) (Homo sapiens (Human), UniProt P29597). Put plainly: TYK2 JH2 Domain Binding Assay (KINOMEscan competition binding). The settings on record: KINOMEscan; 11-point 3-fold dilution, top concentration 30,000 nM; Kd measurements in duplicate; read-out: TYK JH2 (Kd). On the procedure: Binding constants for compounds disclosed herein may be determined by the KINOMEscan® assay developed by DiscoveRx. KINOMEscan® is based on a competition binding assay that quantitatively measures the ability of a compound to compete with an immobilized, active-site directed ligand. The assay is performed by combining three components: DNA-tagged kinase; immobilized ligand; and a test compound. The ability of the test compound to compete with the immobilized ligand is measure via quantitative PCR of the DNA tag.
human TYK2 (JH2domain-pseudokinase), sequence (P29597 556-888): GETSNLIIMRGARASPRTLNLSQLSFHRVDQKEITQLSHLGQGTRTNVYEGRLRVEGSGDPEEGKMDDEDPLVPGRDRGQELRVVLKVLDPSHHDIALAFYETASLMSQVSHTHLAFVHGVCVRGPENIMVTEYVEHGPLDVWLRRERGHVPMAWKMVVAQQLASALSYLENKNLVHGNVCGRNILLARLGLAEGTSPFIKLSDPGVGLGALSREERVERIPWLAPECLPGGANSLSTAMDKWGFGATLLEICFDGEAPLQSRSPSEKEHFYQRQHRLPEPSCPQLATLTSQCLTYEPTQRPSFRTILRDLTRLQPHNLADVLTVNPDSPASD
Binding constants for compounds disclosed herein against the JH2 domain are determined by the following protocol for a KINOMEscan® assay (DiscoveRx). A fusion protein of a partial length construct of human TYK2 (JH2domain-pseudokinase) (amino acids G556 to D888 based on reference sequence NP 003322.3) and the DNA binding domain of NFkB is expressed in transiently transfected HEK293 cells. From these HEK 293 cells, extracts are prepared in M-PER extraction buffer (Pierce) in the presence of Protease Inhibitor Cocktail Complete (Roche) and Phosphatase Inhibitor Cocktail Set II (Merck) per manufacturers' instructions. The TYK2 (JH2domain-pseudokinase) fusion protein is labeled with a chimeric double-stranded DNA tag containing the NFkB binding site (5′-GGGAATTCCC-3′) fused to an amplicon for qPCR readout, which is added directly to the expression extract (the final concentration of DNA-tag in the binding reaction is 0.1 nM).
Streptavidin-coated magnetic beads (Dynal M280) are treated with a biotinylated small molecule ligand for 30 minutes at room temperature to generate affinity resins for the binding assays. The liganded beads are blocked with excess biotin and washed with blocking buffer (SeaBlock (Pierce), 1% BSA, 0.05% Tween 20, 1 mM DTT) to remove unbound ligand and to reduce nonspecific binding.
Extracts are used directly in binding assays without any enzyme purification steps at a >10,000-fold overall stock dilution (final DNA tagged enzyme concentration<0.1 nM). Extracts are loaded with DNA-tag and diluted into the binding reaction in a two-step process. First extracts are diluted 1:100 in 1× binding buffer (PBS/0.05% Tween 20/10 mM DTT/0.1% BSA/[…] sonicated salmon sperm DNA) containing 10 nM DNA-tag. This dilution is allowed to equilibrate at room temperature for 15 minutes and then subsequently diluted 1:100 in 1× binding buffer. Test compounds are prepared as 111× stocks in 100% DMSO. Kds are determined using an 11-point 3-fold compound dilution series with three DMSO control points. All compounds for Kd measurements are distributed by acoustic transfer (non-contact dispensing) in 100% DMSO. The compounds are then diluted directly into the assays such that the final concentration of DMSO is 0.9%. All reactions performed in polypropylene 384-well plates. Each is a final volume of 0.02 mL. Assays are incubated with shaking for 1 hour at room temperature. Then the beads are pelleted and washed with wash buffer (lx PBS, 0.05% Tween 20) to remove displaced kinase and test compound. The washed beads are re-suspended in elution buffer (lx PBS, 0.05% Tween 20, 0.5 μM non-biotinylated affinity ligand) and incubated at room temperature with shaking for 30 minutes. The kinase concentration in the eluates is measured by qPCR. qPCR reactions are assembled by adding 2.5 μL of kinase eluate to 7.5 μL of qPCR master mix containing 0.15 μM amplicon primers and 0.15 μM amplicon probe. The qPCR protocol consists of a 10-minute hot start at 95° C., followed by 35 cycles of 95° C. for 15 seconds, 60° C. for 1 minute.
Test compounds are prepared as 111× stocks in 100% DMSO. Kds are determined using an 11-point 3-fold compound dilution series with three DMSO control points. All compounds for Kd measurements are distributed by acoustic transfer (non-contact dispensing) in 100% DMSO. The compounds are then diluted directly into the assays such that the final concentration of DMSO is 0.9%. […]
As to `CNC(=O)c1cnc(N2CCCN(C(=O)OC(C)(C)C)CC2)nc1Nc1cccc(-c2ncc(F)cn2)c1OC` [Compound 72, Tert-Butyl 4-(4-((3-(5-fluoropyrimidin-2-yl)-2-methoxyphenyl)amino)-5-(methylcarbamoyl)pyrimidin-2-yl)-1,4-diazepane-1-carboxylate], the dissociation constant Kd stood at 4.5 µM. Consider `COc1ccccc1Nc1nc(N2CCCN(C(=O)OC(C)(C)C)CC2)ncc1C(N)=O` [Compound 41, Tert-Butyl 4-(5-carbamoyl-4-((2-methoxyphenyl)amino)pyrimidin-2-yl)-1,4-diazepane-1-carboxylate], for which the Kd stood at 19 µM. As for `CNC(=O)c1cnc(N2CCC(C(=O)NC)C2)nc1NC(=O)c1n[nH]c2c(OC)cccc12` (stereo not shown) [Compound 56, 7-methoxy-N-(5-(methylcarbamoyl)-2-(3-(methylcarbamoyl)pyrrolidin-1-yl)pyrimidin-4-yl)-1H-indazole-3-carboxamide], the figure is 11 µM; as for `CCOC(=O)C1CCN(c2ncc(C(=O)NC)c(Nc3cccc(-c4ncc(F)cn4)c3OC)n2)CC1` [Compound 28, Ethyl 1-(4-((3-(5-fluoropyrimidin-2-yl)-2-methoxyphenyl)amino)-5-(methylcarbamoyl)pyrimidin-2-yl)piperidine-4-carboxylate], 0.0023 µM; as for `CC1CNCCN1c1ncc(C(N)=O)c(Nc2ccccc2S(C)(=O)=O)n1` (racemic) [Compound 63, 2-(2-methylpiperazin-1-yl)-4-((2-(methylsulfonyl)phenyl)amino)pyrimidine-5-carboxamide hydrochloride], 1.4 µM. As for `CNC(=O)c1cnc(N2CCCNCC2)nc1Nc1ccccc1S(C)(=O)=O` [Compound 67, 2-(1,4-diazepan-1-yl)-N-methyl-4-((2-(methylsulfonyl)phenyl)amino)pyrimidine-5-carboxamide hydrochloride], the figure is 3.4 µM; as for `CNC(=O)c1cnc(N2CCNCC2C)nc1Nc1ccccc1S(C)(=O)=O` (stereo not shown) [Compound 69, N-methyl-2-(2-methylpiperazin-1-yl)-4-((2-(methylsulfonyl)phenyl)amino)pyrimidine-5-carboxamide Hydrochloride], 1.8 µM. As for `CNC(=O)c1cnc(N2CCCNCC2)nc1Nc1cccc(-c2ncc(F)cn2)c1OC` [Compound 74, 2-(1,4-diazepan-1-yl)-4-((3-(5-fluoropyrimidin-2-yl)-2-methoxyphenyl)amino)-N-methylpyrimidine-5-carboxamide Hydrochloride], the figure is 0.8 µM.

For `O=C(NO)c1cnc(N2CCCC2)nc1Nc1ccc(C2CC2)nc1` [Compound 54, 4-((6-cyclopropylpyridin-3-yl)amino)-N-hydroxy-2-(pyrrolidin-1-yl)pyrimidine-5-carboxamide], the equilibrium dissociation constant (Kd) came out at 0.16 µM. As for `CNC(=O)c1cnc(N2CCN(C(=O)OC(C)(C)C)CC2C)nc1Nc1ccccc1S(C)(=O)=O` (stereo not shown) [Compound 18, Tert-Butyl 3-methyl-4-(5-(methylcarbamoyl)-4-((2-(methylsulfonyl)phenyl)amino)pyrimidin-2-yl)piperazine-1-carboxylate], the figure is 0.44 µM. As for `CNC(=O)c1cnc(N2CCCN(C(C)=O)CC2)nc1Nc1ccc(C2CC2)nc1` [Compound 21, 2-(4-acetyl-1,4-diazepan-1-yl)-4-((6-cyclopropylpyridin-3-yl)amino)-N-methylpyrimidine-5-carboxamide], the figure is 14 µM. As for `CNC(=O)c1cnc(N2CC(C(=O)NC)C2)nc1Nc1ccc(C2CC2)nc1` [Compound 51, 4-((6-cyclopropylpyridin-3-yl)amino)-N-methyl-2-(3-(methylcarbamoyl)azetidin-1-yl)pyrimidine-5-carboxamide], the figure is 1.5 µM. Take `CNC(=O)c1cnc(N2CCN(C(C)=O)CC2C)nc1Nc1cccc(-c2ncc(F)cn2)c1OC` (stereo not shown) [Compound 61, 2-(4-acetyl-2-methylpiperazin-1-yl)-4-((3-(5-fluoropyrimidin-2-yl)-2-methoxyphenyl)amino)-N-methylpyrimidine-5-carboxamide]: the Kd was 0.015 µM.

As usually defined, the Kd is the free concentration of one partner at which half of the binding sites on the other are occupied at equilibrium, for simple one-to-one binding.
